Test [1] deals with T1, glycine transporter-1 (GlyT-1) (Homo sapiens, UniProt P48067).
T1 construct: JAR cells (ATCC#HTB-144), which endogenously express GlyT-1; host or cells: JAR human choriocarcinoma cells
T1 sequence (P48067 1-706): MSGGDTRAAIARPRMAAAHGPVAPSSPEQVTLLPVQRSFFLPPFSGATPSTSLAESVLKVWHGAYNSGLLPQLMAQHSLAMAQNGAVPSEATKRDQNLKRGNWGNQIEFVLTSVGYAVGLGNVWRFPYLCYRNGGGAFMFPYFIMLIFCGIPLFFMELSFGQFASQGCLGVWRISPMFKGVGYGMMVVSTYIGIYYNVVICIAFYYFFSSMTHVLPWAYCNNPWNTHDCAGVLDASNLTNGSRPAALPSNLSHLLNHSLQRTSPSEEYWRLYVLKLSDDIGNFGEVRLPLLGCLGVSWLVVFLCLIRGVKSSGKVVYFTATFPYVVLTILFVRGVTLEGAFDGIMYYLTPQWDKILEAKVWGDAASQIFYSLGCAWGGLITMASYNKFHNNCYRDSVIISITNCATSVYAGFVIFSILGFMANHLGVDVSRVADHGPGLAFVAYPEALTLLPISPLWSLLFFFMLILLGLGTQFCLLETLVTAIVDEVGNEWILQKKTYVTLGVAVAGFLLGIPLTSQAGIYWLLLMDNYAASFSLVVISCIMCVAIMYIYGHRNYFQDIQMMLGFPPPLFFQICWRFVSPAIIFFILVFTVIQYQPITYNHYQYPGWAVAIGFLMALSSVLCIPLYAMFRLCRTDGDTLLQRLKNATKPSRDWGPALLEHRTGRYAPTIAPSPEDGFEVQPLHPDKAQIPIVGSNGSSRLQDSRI
The test is described as follows: [14C]glycine uptake assay in JAR cells endogenously expressing GlyT-1 (scintillation proximity). The following applies: JAR cells, [14C]glycine 5 μM, 3 hour incubation; read-out: GlyT-1 IC50. It is filed as cell-based. Summed up:
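Human choriocarcinoma JAR cells (endogenous GlyT-1) attached overnight, then pre-incubated 10 min at room temperature with compound in pH 7.4 Hepes uptake buffer containing 5 mM alanine and 0.75% DMSO. Uptake of 5 μM [14C]glycine over 3 h at 37 °C read by scintillation proximity; IC50 from four-parameter fit of nine-point curves.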
For orientation: SPA uses beads or plates that emit light when radiolabelled molecules are held near them.

Test [2] addresses T2, glycine transporter-2 (GlyT-2) (Homo sapiens, UniProt Q9Y345).
T2 construct: expressed in transfected cells
T2 sequence (Q9Y345 1-797): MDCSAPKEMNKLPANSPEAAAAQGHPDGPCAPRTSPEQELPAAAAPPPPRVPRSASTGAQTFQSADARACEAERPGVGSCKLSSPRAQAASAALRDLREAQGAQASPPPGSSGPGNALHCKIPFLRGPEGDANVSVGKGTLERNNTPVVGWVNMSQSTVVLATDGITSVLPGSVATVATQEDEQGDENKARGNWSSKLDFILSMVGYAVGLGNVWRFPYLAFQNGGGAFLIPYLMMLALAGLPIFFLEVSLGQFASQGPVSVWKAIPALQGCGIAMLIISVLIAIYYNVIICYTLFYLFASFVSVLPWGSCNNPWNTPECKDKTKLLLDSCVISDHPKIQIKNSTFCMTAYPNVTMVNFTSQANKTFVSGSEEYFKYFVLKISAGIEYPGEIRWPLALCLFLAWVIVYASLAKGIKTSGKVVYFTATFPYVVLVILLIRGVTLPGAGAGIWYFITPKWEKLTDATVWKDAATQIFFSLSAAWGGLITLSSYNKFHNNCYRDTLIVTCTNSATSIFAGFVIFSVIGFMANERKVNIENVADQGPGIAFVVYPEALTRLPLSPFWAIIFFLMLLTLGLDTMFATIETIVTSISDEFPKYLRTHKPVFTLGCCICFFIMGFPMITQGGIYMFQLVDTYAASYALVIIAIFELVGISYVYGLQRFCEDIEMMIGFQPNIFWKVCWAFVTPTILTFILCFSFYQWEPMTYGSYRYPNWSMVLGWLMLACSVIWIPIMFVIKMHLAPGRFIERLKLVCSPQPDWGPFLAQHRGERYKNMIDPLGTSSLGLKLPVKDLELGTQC
The test is described as follows: [14C]glycine uptake assay in HEK-GlyT-2 transfected cells. The conditions noted are these: HEK-GlyT-2 cells. Format: cell-based.

Counter-ions that a name gives are not always drawn.

As usually defined, the IC50 is the concentration at which inhibition is half-maximal. For the compound `CCCS(=O)(=O)N1CCN(C2(CNC(=O)c3c(N)cccc3Cl)Cc3ccccc3C2)CC1` [compound 115, 2-Amino-6-chloro-N-((2-(4-(propylsulfonyl)piperazin-1-yl)-2,3-dihydro-1H-inden-2-yl)methyl)benzamide Hydrochloride], the results for the IC50 in test [1] and in test [2] were 661 nM and more than 75000 nM, respectively.

`CC1CN(C2(CNC(=O)c3ccc(C(F)(F)F)cc3Cl)CCC(F)(F)CC2)CCN1S(=O)(=O)c1cn(C)nn1` (racemic) [compound 227, (±)-2-Chloro-N-((4,4-difluoro-1-(3-methyl-4-(1-methyl-1H-1,2,3-triazol-4-ylsulfonyl)piperazin-1-yl)cyclohexyl)methyl)-4-(trifluoromethyl)benzamide Hydrochloride]: the values for the IC50 in test [1] and in test [2] were 7 nM and more than 75000 nM, respectively.

Take `CCCS(=O)(=O)N1CCN(C2(CNC(=O)c3ccc(Cl)cc3OC)CCCCCC2)CC1` [compound 53, 4-Chloro-2-methoxy-N-((1-(4-(propylsulfonyl)piperazin-1-yl)cycloheptyl)methyl) benzamide Hydrochloride]: the IC50 in test [1] was 373 nM; in test [2] it was more than 75000 nM.

For the compound `CCCS(=O)(=O)N1CCN(C2(CNC(=O)c3ccc(C(F)(F)F)cc3)CCCCCC2)CC1` [compound 61, N-((1-(4-(Propylsulfonyl)piperazin-1-yl)cycloheptyl)methyl)-4-(trifluoromethyl) benzamide Hydrochloride], the IC50 in test [1] worked out at 105 nM; in test [2], 28000 nM.

On to `CCCS(=O)(=O)N1CCN(C2(CNC(=O)c3ccc(OC(F)(F)F)cc3)CCCCCC2)CC1` [compound 62, N-((1-(4-(Propylsulfonyl)piperazin-1-yl)cycloheptyl)methyl)-4-(trifluoromethoxy) benzamide Hydrochloride], for which the values for the IC50 in test [1] and in test [2] were 81 nM and 3640 nM, respectively.

On to `CCCS(=O)(=O)N1CCN(C2(CNC(=O)c3ccc(C)cc3)CCCCC2)CC1` [compound 25, 4-Methyl-N-((1-(4-(propylsulfonyl)piperazin-1-yl)cyclohexyl)methyl) benzamide Hydrochloride], for which the IC50 was 767 nM in test [1] and more than 75000 nM in test [2].

`Cc1ccc(C(=O)NCC2(N3CCN(S(=O)(=O)c4cn(C)cn4)CC3)CCCCC2)c(C)c1` [compound 94, 2,4-Dimethyl-N-((1-(4-(1-methyl-1H-imidazol-4-ylsulfonyl)piperazin-1-yl)cyclohexyl)methyl) benzamide Hydrochloride]: the IC50 is 13 nM in test [1] and more than 75000 nM in test [2].

As to `CCCS(=O)(=O)N1CCN(C2(CNC(=O)c3cc(F)c(F)cc3Cl)CCC(F)(F)CC2)CC1` [compound 264, 2-Chloro-N-((4,4-difluoro-1-(4-(propylsulfonyl)piperazin-1-yl)cyclohexyl)methyl)-4,5-difluorobenzamide Hydrochloride], the IC50 in test [1] was 48 nM; in test [2], more than 75000 nM.

As for `CCCS(=O)(=O)N1CCN(C2(CNC(=O)c3ccc(Cl)cc3OC)CCCCC2)CC1` [compound 45, 4-Chloro-2-methoxy-N-((1-(4-(propyl-sulfonyl)piperazin-1-yl)cyclohexyl)methyl) benzamide Hydrochloride], the IC50 in test [1] was 322 nM; in test [2] it was more than 75000 nM.

Turning to `CCCS(=O)(=O)N1CCN(C2(CNC(=O)c3cccc(C(F)(F)F)c3)CCCCC2)CC1` [compound 28, N-((1-(4-(Propylsulfonyl)piperazin-1-yl)cyclohexyl)methyl)-3-(trifluoromethyl) benzamide Hydrochloride], the IC50 is 523 nM in test [1] and more than 75000 nM in test [2].

For the compound `CCCS(=O)(=O)N1CCN(C2(CNC(=O)c3ccccc3C(F)(F)F)CCCCC2)CC1` [compound 50, N-((1-(4-(Propylsulfonyl)piperazin-1-yl)cyclohexyl)methyl)-2-(trifluoromethyl)benzamide Hydrochloride], the results for the IC50 in test [1] and in test [2] were 48 nM and more than 75000 nM, respectively.

For `Cn1cc(S(=O)(=O)N2CCN(C3(CNC(=O)c4c(F)cccc4F)CCCCC3)CC2)nn1` [compound 114, 2,6-Difluoro-N-((1-(4-(1-methyl-1H-1,2,3-triazol-4-ylsulfonyl)piperazin-1-yl)cyclohexyl)methyl) benzamide Hydrochloride], the values for the IC50 in test [1] and in test [2] were 2 nM and more than 75000 nM, respectively.

With `CCCS(=O)(=O)N1CCN(C2(CNC(=O)c3c(C)cccc3F)CCCCC2)CC1` [compound 49, 2-Fluoro-6-methyl-N-((1-(4-(propylsulfonyl)piperazin-1-yl)cyclohexyl)methyl) benzamide Hydrochloride], the IC50 in test [1] is 16 nM; in test [2], more than 75000 nM.

On to `COc1cccc(F)c1C(=O)NCC1(N2CCN(S(=O)(=O)CC3CC3)CC2)CCCCC1` [compound 83, N-((1-(4-(Cyclopropylmethyl-sulfonyl)piperazin-1-yl)cyclohexyl)methyl)-2-fluoro-6-methoxybenzamide Hydrochloride], for which the IC50 is 57 nM in test [1] and more than 75000 nM in test [2].

Turning to `CCCS(=O)(=O)N1CCN(C2(CNC(=O)c3c(Cl)cc(C(F)(F)F)cc3C(F)(F)F)CCC(F)(F)CC2)CC1` [compound 254, 2-Chloro-N-((4,4-difluoro-1-(4-(propylsulfonyl)piperazin-1-yl)cyclohexyl)methyl)-4,6-bis(trifluoromethyl) benzamide Hydrochloride], the IC50 in test [1] was 7 nM; in test [2] it was more than 75000 nM.

For `Cn1cnc(S(=O)(=O)N2CCN(C3(CNC(=O)c4c(F)cccc4F)CCCOC3)CC2)c1` (stereo not shown) [compound 127, 2,6-Difluoro-N-((3-(4-(1-methyl-1H-imidazol-4-ylsulfonyl)piperazin-1-yl)tetrahydro-2H-pyran-3-yl)methyl)benzamide Hydrochloride], the IC50 in test [1] was 369 nM; in test [2], more than 75000 nM.

Consider `CCCS(=O)(=O)N1CCN(C2(CNC(=O)c3c(Cl)cc(Cl)cc3Cl)CCC(F)(F)CC2)CC1` [compound 260, 2,4,6-Trichloro-N-((4,4-difluoro-1-(4-(propylsulfonyl)piperazin-1-yl)cyclohexyl)methyl) benzamide Hydrochloride], for which the figures for the IC50 in test [1] and in test [2] were 17 nM and more than 75000 nM, respectively.

Regarding `O=C(NCC1(N2CCC(S(=O)(=O)CC3CC3)CC2)CCCCC1)c1ccc(Cl)cc1Cl` [compound 200, 2,4-Dichloro-N-((1-(4-(cyclopropylmethyl-sulfonyl)piperidin-1-yl)cyclohexyl)methyl) benzamide Hydrochloride], the IC50 in test [1] was 1080 nM; in test [2], more than 75000 nM.

Regarding `CC(NC(=O)c1ccc(F)cc1Cl)C1(N2CCN(S(=O)(=O)c3cn(C)nn3)CC2)CCC(F)(F)CC1` (stereo not shown) [compound 220, 2-Chloro-N-(1-(4,4-difluoro-1-(4-(1-methyl-1H-1,2,3-triazol-4-ylsulfonyl)piperazin-1-yl)cyclohexyl)ethyl)-4-fluorobenzamide Hydrochloride], the IC50 in test [1] is 83 nM; in test [2], more than 75000 nM.

Consider `CCCS(=O)(=O)N1CCN(C2(CNC(=O)c3cccc(OC)c3)CCCCC2)CC1` [compound 29, 3-Methoxy-N-((1-(4-(propylsulfonyl)piperazin-1-yl)cyclohexyl)methyl) benzamide Hydrochloride], for which the values for the IC50 in test [1] and in test [2] were 766 nM and more than 75000 nM, respectively.

The values above are taken from patent US9045445B2, “Glycine transporter-1 inhibitors, methods of making them, and uses thereof” (Albany Molecular Research, Inc., priority 2010, dated 2015).
